# Earlier results in patent US7476499B2 (priority 2006, dated 2009).
# Tested on: poliovirus virions
compound,measurement,value
"Cc1cc(CCCCCCCOc2ccc(C3=NCCO3)cc2)on1 [WIN-51711, Disoxaril]",mode of action on poliovirus,prevents the uncoating of the viral genome after viral cell entry
